In US8574831B2, “Mutational profiles in HIV-1 reverse transcriptase correlated with phenotypic drug resistance” (Virco N.V., priority 2000, dated 2013):

Test system: HIV with mutations in the HIV protease sequence
Test: Phenotypic fold resistance to protease inhibitors, protease mutations 84A/84L/84C/54M/54L/54V in a background (Examples 8-13)
Type: cell-based, HIV-1
Method: As is the case with the genotyping assays, the recombinant virus assay starts with the amplification of viral target sequences by means of PCR. The amplicons are incorporated into a proviral laboratory clone with sequences homologous to those present in the amplicon deleted. This generates a stock of chimeric viruses. The viruses are tested for their ability to grow in the presence of different concentrations of drugs. Results are obtained by calculating IC50 values for each inhibitor and by reporting the results as IC50 values, expressed in μM concentrations, or by computing the ratio of the IC50 values found for the chimeric virus to the IC50 values found for a wild type susceptible laboratory virus tested in parallel. In the latter case, resistance is expressed as “fold-resistance” compared to a wild-type susceptible HIV-1 strain. In order to meet the need for high-volume testing and a short turn-around time for an individual test, the latest generation of phenotyping assays has undergone further modifications. The use of reporter gene systems for susceptibility testing allows the implementation of laboratory automation and standardization. See Pauwels, et al., J. Virol. Methods 20, 309-321 (1998); Paulous, S., et al., International Workshop on HIV Drug Resistance, Treatment Strategies and Eradication, St. Petersburg, Fla., USA. Abstr. 46 (1997); and Deeks, S. G., et al., 2nd International Workshop on HIV Drug Resistance and Treatment Strategies, Lake Maggiore, Italy. Abstr. 53 (1998).
The ANTIVIROGRAM® assay (Virco) (WO 97/27480) is based on homologous recombination of patient derived HIV-1 gag/PR/RT sequences into a proviral HIV-1 clone correspondingly deleted for the gag/PR/RT sequences. See Pauwels, et al., J. Virol. Methods 20, 309-321 (1998). A similar assay (Phenosense ViroLogic) is based on enzymatic ligation of patient-derived PR/RT sequences into a correspondingly deleted proviral vector carrying an indicator gene, luciferase, inserted in the deleted HIV-1 envelope gene. See Deeks, S. G., et al., 2nd International Workshop on HIV Drug Resistance and Treatment Strategies, Lake Maggiore, Italy. Abstr. 53 (1998). Hertogs et al. Antimicrob. Agents Chemother. 44(3) 568-573 (2000) the disclosures of which are herein incorporated by reference.
The methods of monitoring HIV-1 drug resistance, may also be used in combination with phenotypic drug resistance testing of viral isolates. For example, in one embodiment, a phenotypic test is utilized that is based upon the construction of chimeric HIV-1 strains composed of the protease (PR) and reverse transcriptase (RT) gene sequences which are isolated and amplified from the patient viral RNA. These strains may subsequently be recombined inside CD4+ T cells with a standard laboratory isogenic (HXB2) HIV-1 DNA construct from which the PR/RT gene sequences were deleted. The recombinant strains may then be grown in the presence of the above-mentioned antiviral drugs and the susceptibility of the viral isolates may be expressed as fold-change value of the IC50 of the drug on the patient isolates over the IC50 of the drug on a wild-type laboratory reference strain.

## CC(C)CN(C[C@@H](O)[C@H](Cc1ccccc1)NC(=O)O[C@H]1CCOC1)S(=O)(=O)c1ccc(N)cc1 [Amprenavir, amprenavir]
Table 12, V055199, genotype 10I + 33F + 54M + 90M
  Fold change in IC50: 38.7 fold
Table 13, V19263, genotype 77I
  Fold change in IC50: 0.6 fold
Table 13, V20160, genotype WT
  Fold change in IC50: 1.0 fold
Table 13, V021667, genotype 10I
  Fold change in IC50: 1.1 fold
Table 13, V030496, genotype 10I + 77I
  Fold change in IC50: 0.5 fold
Table 13, V048868, genotype 10I + 54L + 71V + 77I + 90M
  Fold change in IC50: 4.1 fold
Table 13, V048874, genotype 10I + 33F + 54L + 71V + 77I + 90M
  Fold change in IC50: 32.1 fold
Table 13, V048875, genotype 10I + 33F + 54L + 71V + 77I + 90M
  Fold change in IC50: 24.6 fold
Table 13, V048877, genotype 10I + 33F + 77I + 90M
  Fold change in IC50: 7.9 fold
Table 13, V048880, genotype 10I + 33F + 77I + 90M
  Fold change in IC50: 3.8 fold
Table 13, V052940, genotype 71V
  Fold change in IC50: 0.3 fold
Table 13, V052942, genotype 10I + 71V
  Fold change in IC50: 0.5 fold
Table 13, V052943, genotype 10I + 90M
  Fold change in IC50: 0.4 fold
Table 13, V052944, genotype 10I + 90M
  Fold change in IC50: 0.7 fold
Table 13, V052945, genotype 77I + 90M
  Fold change in IC50: 0.3 fold
Table 13, V052946, genotype 71V + 90M
  Fold change in IC50: 0.5 fold
Table 13, V052947, genotype 10I + 77I + 90M
  Fold change in IC50: 1.2 fold
Table 13, V052948, genotype 10I + 71V + 90M
  Fold change in IC50: 2.0 fold
Table 13, V052949, genotype 10I + 71V + 77I + 90M
  Fold change in IC50: 0.6 fold
Table 13, V052950, genotype 33F
  Fold change in IC50: 0.7 fold
Table 13, V052951, genotype 33F + 77I
  Fold change in IC50: 0.3 fold
Table 13, V052953, genotype 10I + 33F + 77I
  Fold change in IC50: 1.5 fold
Table 13, V052954, genotype 33F + 77I + 90M
  Fold change in IC50: 2.1 fold
Table 13, V052955, genotype 33F + 71V + 90M
  Fold change in IC50: 2.7 fold
Table 13, V052968, genotype 10L/I + 33F/L + 54L + 77I
  Fold change in IC50: 2.9 fold
Table 13, V052969, genotype 10I + 33F + 54L + 90M
  Fold change in IC50: 10.4 fold
Table 13, V052970, genotype 54L
  Fold change in IC50: 0.8 fold
Table 13, V052971, genotype 10I + 54L
  Fold change in IC50: 2.6 fold
Table 13, V052972, genotype 54L + 77I
  Fold change in IC50: 1.1 fold
Table 13, V052973, genotype 10I + 54L + 77I
  Fold change in IC50: 2.1 fold
Table 13, V052974, genotype 10I + 54L + 90M
  Fold change in IC50: 1.2 fold
Table 13, V052975, genotype 10I + 54L + 71V + 90M
  Fold change in IC50: 6.2 fold
Table 13, V052976, genotype 10I + 54L + 71V + 77I + 90M
  Fold change in IC50: 2.0 fold
Table 13, V053832, genotype 10I + 33F
  Fold change in IC50: 0.6 fold
Table 13, V053854, genotype 54L + 71V
  Fold change in IC50: 5.0 fold
Virco ID 214846, genotype 10I + 33F + 54V + 71V + 77I + 90M, vs mean IC50 of wild type laboratory HIV strain
  Fold change in IC50: 4.2 fold
Virco ID V021667, genotype 10I, vs mean IC50 of wild type laboratory HIV strain
  Fold change in IC50: 1.1 fold
Virco ID V030496, genotype 10I + 77I, vs mean IC50 of wild type laboratory HIV strain
  Fold change in IC50: 0.5 fold
Virco ID V048876, genotype 33F + 54V + 77I + 90M, vs mean IC50 of wild type laboratory HIV strain
  Fold change in IC50: 1.1 fold
Virco ID V048877, genotype 10I + 33F + 77I + 90M, vs mean IC50 of wild type laboratory HIV strain
  Fold change in IC50: 7.9 fold
Virco ID V048880, genotype 10I + 33F + 77I + 90M, vs mean IC50 of wild type laboratory HIV strain
  Fold change in IC50: 3.8 fold
Virco ID V052940, genotype 71V, vs mean IC50 of wild type laboratory HIV strain
  Fold change in IC50: 0.3 fold
Virco ID V052942, genotype 10I + 71V, vs mean IC50 of wild type laboratory HIV strain
  Fold change in IC50: 0.5 fold
Virco ID V052943, genotype 10I + 90M, vs mean IC50 of wild type laboratory HIV strain
  Fold change in IC50: 0.4 fold
Virco ID V052944, genotype 10I + 90M, vs mean IC50 of wild type laboratory HIV strain
  Fold change in IC50: 0.7 fold
Virco ID V052946, genotype 71V + 90M, vs mean IC50 of wild type laboratory HIV strain
  Fold change in IC50: 0.5 fold
Virco ID V052947, genotype 10I + 77I + 90M, vs mean IC50 of wild type laboratory HIV strain
  Fold change in IC50: 1.2 fold
Virco ID V052948, genotype 10I + 71V + 90M, vs mean IC50 of wild type laboratory HIV strain
  Fold change in IC50: 2.0 fold
Virco ID V052949, genotype 10I + 71V + 77I + 90M, vs mean IC50 of wild type laboratory HIV strain
  Fold change in IC50: 0.6 fold
Virco ID V052950, genotype 33F, vs mean IC50 of wild type laboratory HIV strain
  Fold change in IC50: 0.7 fold
Virco ID V052951, genotype 33F + 77I, vs mean IC50 of wild type laboratory HIV strain
  Fold change in IC50: 0.3 fold
Virco ID V052953, genotype 10I + 33F + 77I, vs mean IC50 of wild type laboratory HIV strain
  Fold change in IC50: 1.5 fold
Virco ID V052954, genotype 33F + 77I + 90M, vs mean IC50 of wild type laboratory HIV strain
  Fold change in IC50: 2.1 fold
Virco ID V052955, genotype 33F + 71V + 90M, vs mean IC50 of wild type laboratory HIV strain
  Fold change in IC50: 2.7 fold
Virco ID V052957, genotype 10I + 33F + 54V + 90M, vs mean IC50 of wild type laboratory HIV strain
  Fold change in IC50: 5.2 fold
Virco ID V052958, genotype 10I + 33F + 54V + 77I + 90M, vs mean IC50 of wild type laboratory HIV strain
  Fold change in IC50: 7.8 fold
Virco ID V052959, genotype 10I + 33F + 54V + 77I + 90M, vs mean IC50 of wild type laboratory HIV strain
  Fold change in IC50: 7.0 fold
Virco ID V052960, genotype 10I + 33F + 54V + 71V + 90M, vs mean IC50 of wild type laboratory HIV strain
  Fold change in IC50: 6.4 fold
Virco ID V052961, genotype 54V, vs mean IC50 of wild type laboratory HIV strain
  Fold change in IC50: 0.5 fold
Virco ID V052962, genotype 10I + 54V, vs mean IC50 of wild type laboratory HIV strain
  Fold change in IC50: 0.5 fold
Virco ID V052963, genotype 54V + 77I + 90M, vs mean IC50 of wild type laboratory HIV strain
  Fold change in IC50: 0.5 fold
Virco ID V052964, genotype 54V + 71V + 90M, vs mean IC50 of wild type laboratory HIV strain
  Fold change in IC50: 0.3 fold
Virco ID V052965, genotype 10I + 54V + 77I + 90M, vs mean IC50 of wild type laboratory HIV strain
  Fold change in IC50: 0.7 fold
Virco ID V052966, genotype 10I + 54V + 71V + 90M, vs mean IC50 of wild type laboratory HIV strain
  Fold change in IC50: 1.5 fold
Virco ID V052967, genotype 10I + 54V + 71V + 77I + 90M, vs mean IC50 of wild type laboratory HIV strain
  Fold change in IC50: 0.4 fold
Virco ID V053358, genotype 33F + 54V + 77I + 90M, vs mean IC50 of wild type laboratory HIV strain
  Fold change in IC50: 1.0 fold
Virco ID V053831, genotype 33F + 54V, vs mean IC50 of wild type laboratory HIV strain
  Fold change in IC50: 7.5 fold
Virco ID V053832, genotype 10I + 33F, vs mean IC50 of wild type laboratory HIV strain
  Fold change in IC50: 0.6 fold
